In the supplement of paper PMC10307832:

Legend:
Experiment in all cases: relative viability (nuclei count vs DMSO), 5 days (fraction); higher = more cells survive
[1] = compound: c1ccc2c(CCNc3ccc(Nc4ccncc4)cc3)c[nH]c2c1 [Serdemetan] + CC(=O)Nc1cccc(-n2c(=O)n(C3CC3)c(=O)c3c(Nc4ccc(I)cc4F)n(C)c(=O)c(C)c32)c1 [Trametinib] (partner 0.02 µM)
Procedure, shortened: (§1)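 Lung cancer cell lines in 1536-well plates got either a single drug or a fixed anchor-drug dose together with five library-drug doses (not always all listed) in √10 steps, by pin tool, on the day after seeding. Nuclei were counted after 5 days, and relative viability is the treated-to-vehicle ratio of nuclei counts. Values are medians of duplicate plates.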

[2] = compound: C1CC(C2=C(C1)C3=C(N2)C=CC(=C3)Cl)C(=O)N [Selisistat] + Cc1nc(Nc2ncc(C(=O)Nc3c(C)cccc3Cl)s2)cc(N2CCN(CCO)CC2)n1 [Dasatinib] (partner 0.075 µM)
Procedure, shortened: as §1

[3] = compound: C1CC(C2=C(C1)C3=C(N2)C=CC(=C3)Cl)C(=O)N [Selisistat] + CC(C)C[C@H](NC(=O)[C@H](Cc1ccccc1)NC(=O)c1cnccn1)B(O)O [Bortezomib] (partner 0.002 µM)
Procedure, shortened: as §1

[4] = compound: c1ccc2c(CCNc3ccc(Nc4ccncc4)cc3)c[nH]c2c1 [Serdemetan] + COc1cc2c(Oc3ccc(NC(=O)C4(C(=O)Nc5ccc(F)cc5)CC4)cc3F)ccnc2cc1OCCCN1CCOCC1 [Foretinib] (partner 0.25 µM)
Procedure, shortened: as §1

NCI-H1975
relative viability ([1]; first compound 0.04 µM): 0.403
relative viability ([1]; first compound 0.1265 µM): 0.381
relative viability ([1]; first compound 0.4 µM): 0.331
relative viability ([1]; first compound 1.265 µM): 0.305
relative viability ([1]; first compound 4 µM): 0.371
relative viability ([2]; first compound 0.4 µM): 0.346
relative viability ([2]; first compound 1.265 µM): 0.383
relative viability ([2]; first compound 4 µM): 0.195
relative viability ([2]; first compound 12.65 µM): 0.314
relative viability ([2]; first compound 40 µM): 0.345
relative viability ([3]; first compound 0.4 µM): 0.434
relative viability ([3]; first compound 1.265 µM): 0.339
relative viability ([3]; first compound 4 µM): 0.33
relative viability ([3]; first compound 12.65 µM): 0.354
relative viability ([3]; first compound 40 µM): 0.388
relative viability ([4]; first compound 0.04 µM): 0.866
relative viability ([4]; first compound 0.1265 µM): 0.849
relative viability ([4]; first compound 0.4 µM): 0.982
relative viability ([4]; first compound 4 µM): 0.987

CAL-12T
relative viability ([1]; first compound 0.04 µM): 0.447
relative viability ([1]; first compound 0.1265 µM): 0.335
relative viability ([1]; first compound 0.4 µM): 0.334
relative viability ([1]; first compound 1.265 µM): 0.365
relative viability ([1]; first compound 4 µM): 0.308
relative viability ([2]; first compound 0.4 µM): 0.451
relative viability ([2]; first compound 1.265 µM): 0.478
relative viability ([2]; first compound 4 µM): 0.316
relative viability ([2]; first compound 12.65 µM): 0.281
relative viability ([2]; first compound 40 µM): 0.372
relative viability ([3]; first compound 0.4 µM): 0.992
relative viability ([3]; first compound 1.265 µM): 1.12
relative viability ([3]; first compound 12.65 µM): 0.768
relative viability ([3]; first compound 40 µM): 0.983
relative viability ([4]; first compound 0.04 µM): 1.07
relative viability ([4]; first compound 0.1265 µM): 1.15
relative viability ([4]; first compound 0.4 µM): 1.04
relative viability ([4]; first compound 1.265 µM): 1.03
relative viability ([4]; first compound 4 µM): 0.969

NCI-H1623
relative viability ([2]; first compound 0.4 µM): 0.518
relative viability ([2]; first compound 1.265 µM): 0.587
relative viability ([2]; first compound 4 µM): 0.41
relative viability ([2]; first compound 12.65 µM): 0.551
relative viability ([2]; first compound 40 µM): 0.57
relative viability ([4]; first compound 0.04 µM): 0.901
relative viability ([4]; first compound 0.1265 µM): 0.917
relative viability ([4]; first compound 0.4 µM): 0.698
relative viability ([4]; first compound 1.265 µM): 0.756
relative viability ([4]; first compound 4 µM): 0.703

HCC-44
relative viability ([1]; first compound 0.04 µM): 1.08
relative viability ([1]; first compound 0.1265 µM): 1.05
relative viability ([1]; first compound 0.4 µM): 0.968
relative viability ([1]; first compound 1.265 µM): 0.964
relative viability ([1]; first compound 4 µM): 0.837
relative viability ([3]; first compound 0.4 µM): 0.857
relative viability ([3]; first compound 1.265 µM): 0.908
relative viability ([3]; first compound 4 µM): 1.02
relative viability ([3]; first compound 12.65 µM): 0.926
relative viability ([3]; first compound 40 µM): 0.952

EKVX
relative viability ([1]; first compound 0.04 µM): 0.45
relative viability ([1]; first compound 0.1265 µM): 0.396
relative viability ([1]; first compound 4 µM): 0.268
relative viability ([2]; first compound 0.4 µM): 0.575
relative viability ([2]; first compound 1.265 µM): 0.509
relative viability ([2]; first compound 12.65 µM): 0.409
relative viability ([2]; first compound 40 µM): 0.392
relative viability ([3]; first compound 0.4 µM): 1
relative viability ([3]; first compound 1.265 µM): 1
relative viability ([3]; first compound 4 µM): 0.671
relative viability ([3]; first compound 12.65 µM): 0.84
relative viability ([3]; first compound 40 µM): 1.04
relative viability ([4]; first compound 0.04 µM): 1
relative viability ([4]; first compound 0.1265 µM): 0.82
relative viability ([4]; first compound 0.4 µM): 0.424
relative viability ([4]; first compound 4 µM): 0.858

NCI-H1651
relative viability ([1]; first compound 0.04 µM): 0.848
relative viability ([1]; first compound 0.1265 µM): 0.784
relative viability ([1]; first compound 0.4 µM): 0.775
relative viability ([1]; first compound 1.265 µM): 0.433
relative viability ([1]; first compound 4 µM): 0.256
relative viability ([2]; first compound 0.4 µM): 0.434
relative viability ([2]; first compound 1.265 µM): 0.378
relative viability ([2]; first compound 4 µM): 0.359
relative viability ([2]; first compound 12.65 µM): 0.348
relative viability ([2]; first compound 40 µM): 0.34
relative viability ([3]; first compound 0.4 µM): 1.02
relative viability ([3]; first compound 1.265 µM): 0.939
relative viability ([3]; first compound 4 µM): 0.868
relative viability ([3]; first compound 12.65 µM): 0.874
relative viability ([3]; first compound 40 µM): 0.847
relative viability ([4]; first compound 0.04 µM): 0.724
relative viability ([4]; first compound 0.1265 µM): 0.515
relative viability ([4]; first compound 0.4 µM): 0.407
relative viability ([4]; first compound 1.265 µM): 0.465
relative viability ([4]; first compound 4 µM): 0.235

NCI-H1944
relative viability ([1]; first compound 0.04 µM): 0.424
relative viability ([1]; first compound 0.1265 µM): 0.39
relative viability ([1]; first compound 0.4 µM): 0.332
relative viability ([1]; first compound 1.265 µM): 0.274
relative viability ([1]; first compound 4 µM): 0.278
relative viability ([2]; first compound 0.4 µM): 0.24
relative viability ([2]; first compound 1.265 µM): 0.205
relative viability ([2]; first compound 12.65 µM): 0.22
relative viability ([2]; first compound 40 µM): 0.2
relative viability ([4]; first compound 0.04 µM): 0.832
relative viability ([4]; first compound 0.1265 µM): 0.836
relative viability ([4]; first compound 0.4 µM): 0.828
relative viability ([4]; first compound 1.265 µM): 0.406
relative viability ([4]; first compound 4 µM): 0.392

NCI-H1703
relative viability ([3]; first compound 0.4 µM): 0.293
relative viability ([3]; first compound 1.265 µM): 0.286
relative viability ([3]; first compound 4 µM): 0.301
relative viability ([3]; first compound 12.65 µM): 0.266
relative viability ([3]; first compound 40 µM): 0.332
relative viability ([4]; first compound 0.04 µM): 0.335
relative viability ([4]; first compound 0.1265 µM): 0.338
relative viability ([4]; first compound 0.4 µM): 0.383
relative viability ([4]; first compound 1.265 µM): 0.289
relative viability ([4]; first compound 4 µM): 0.341

Calu-6
relative viability ([3]; first compound 0.4 µM): 0.998
relative viability ([3]; first compound 1.265 µM): 0.961
relative viability ([3]; first compound 4 µM): 0.992
relative viability ([3]; first compound 12.65 µM): 0.902
relative viability ([3]; first compound 40 µM): 0.932
relative viability ([4]; first compound 0.04 µM): 0.866
relative viability ([4]; first compound 0.1265 µM): 0.819
relative viability ([4]; first compound 0.4 µM): 0.839
relative viability ([4]; first compound 1.265 µM): 0.567
relative viability ([4]; first compound 4 µM): 0.472

EBC-1
relative viability ([3]; first compound 0.4 µM): 0.611
relative viability ([3]; first compound 1.265 µM): 0.551
relative viability ([3]; first compound 4 µM): 0.673
relative viability ([3]; first compound 12.65 µM): 0.494
relative viability ([3]; first compound 40 µM): 0.486
relative viability ([4]; first compound 0.04 µM): 0.12
relative viability ([4]; first compound 0.1265 µM): 0.123
relative viability ([4]; first compound 0.4 µM): 0.107
relative viability ([4]; first compound 1.265 µM): 0.124
relative viability ([4]; first compound 4 µM): 0.129

SW 1573
relative viability ([1]; first compound 0.04 µM): 0.595
relative viability ([1]; first compound 0.1265 µM): 0.6
relative viability ([1]; first compound 0.4 µM): 0.465
relative viability ([1]; first compound 1.265 µM): 0.412
relative viability ([1]; first compound 4 µM): 0.256
relative viability ([2]; first compound 0.4 µM): 0.567
relative viability ([2]; first compound 1.265 µM): 0.385
relative viability ([2]; first compound 4 µM): 0.456
relative viability ([2]; first compound 12.65 µM): 0.616
relative viability ([2]; first compound 40 µM): 0.499
relative viability ([3]; first compound 0.4 µM): 1.19
relative viability ([3]; first compound 1.265 µM): 1.02
relative viability ([3]; first compound 4 µM): 1.03
relative viability ([3]; first compound 12.65 µM): 1.02
relative viability ([3]; first compound 40 µM): 1.03
relative viability ([4]; first compound 0.04 µM): 0.898
relative viability ([4]; first compound 0.1265 µM): 0.815
relative viability ([4]; first compound 0.4 µM): 0.877
relative viability ([4]; first compound 1.265 µM): 0.668
relative viability ([4]; first compound 4 µM): 0.422
